In US20260258025A1, “INHIBITORS OF TDP-43 AND TAU AGGREGATION” (Aquinnah Pharmaceuticals, inc., priority 2023, published 2026):
Entries after “also recorded” stand apart in the source; their conditions may differ.

How the values were obtained:
insoluble TDP-43 = experiment: Cell fractionation and immunoblot of TDP-43 in MG-132 challenged human motor neurons; format: cell-based; conditions: 500 nM Compound 183 with MG-132 1 μM
Description: Cell culture and differentiation of iPS Cells into motor neurons. Pluripotent stem cells were grown with mTeSR Plus medium on tissue culture dishes coated with Matrigel, and maintained in 5% CO2 incubators at 37° C. Stem cells were passaged as small aggregates of cells after 1 mM EDTA treatment. […] was added to the cultures for 16-24 h after dissociation to prevent cell death. The iP11NA iPS cell line was acquired from ALSTEM. This cell line was generated from pre-made footprint-free human iPS cells with DOX inducible Ngn2 that has been stably integrated into the human AAVS1 “Safe Harbor” site, and provides a convenient means to differentiate human iPS cells into neurons rapidly and efficiently. Motor neuron differentiation was achieved using a modified 5-day strategy. […]
For analysis of TDP-43 cellular distribution, d14 motor neurons were lysed with Thermo Subcellular Protein Fractionation Kit for cultured cells and processed according to the manufacturer's instructions. […] Fluorescent secondary antibodies were used for band detection and the Kaleidoscope precision plus protein ladder for size estimation. iBright FL1500 imaging system and software were used to quantitate protein band signal. […]

tau stress granules = experiment: SY5Y-tT1 tau arsenite assay (tau stress granules per cell); format: cell-based; conditions: SY5Y-tT1 cells, 2 hours compound, 90 minutes arsenite, 50% reduction of granules per cell, read-out: IC50, Inhibitor Activity of Tau Stress Granules
Description: Example 91: In Vitro Efficacy Assay of Exemplary Compounds—SY5Y-tT1 Tau Arsenite/Thapsigargin Assay
• Before harvesting cells—checked to see if cells are ~80% confluency in their flask • 1. Aspirated growth media from flask. • 2. Added 4 mL of (0.25%) trypsin-EDTA (REF: 25200-056) • 3. Placed in 37° C. incubator for 5 minutes. • 4. Removed from incubator and added 11 mL growth media, washing any remaining cells adhered to the bottom of the flask. • 5. Transferred cell containing media to a 50 mL conical tube and spun for 5 minutes at 800 rpm. • 6. Aspirated supernatant and added 5 mL of growth media to cell pellet, triturating to make a homogenous cell solution. • 7. After counting cells, followed one of these plating paradigms: • (A) If treating with arsenite, plated cells at […] with tetracycline solution (5 mg/mL) added to cell solution at 1:5000 • (B) If treating with thapsigargin, plated cells at 4,000 cells/well with tetracycline solution (5 mg/mL) added to cell solution at 1:5000 • 8. Incubated at 37° C. for 48 hours.
• Solubilized all compounds to 10 mM prior to making dilution plates • 1. To a 96-well U-bottom plate (Falcon Non-Tissue Culture Treated Plates REF: 351177) added 120 μL growth media to all 96 wells, with an additional 58.2 μL to row A. • 2. Added 1.8 μL of 10 mM compound stock to wells A1-11, adding 1.8 μL of 10 mM PERKi stock (Selleck Chemistry GSK2606414 Cat No. S7307) as the control. • 3. Serially diluted 60 μL from row A down through each row, finishing with 180 μL total volume in row H. • 4. Transferred 12.5 μL of each dilution plate well to the correlating wells in cell plate, being careful not to touch cells adhered to bottom of the plate. • 5. Incubated for 2 hours.
• 1. Added 720 μL of 0.05 M sodium arsenite solution (CAS #: 7784-46-5) to 10 mL of growth media for a final concentration of […] arsenite solution, mix well. • 2. Added 12.5 μL of arsenite solution to all wells of compounds treated plate intended for arsenite treatment. • 3. Incubated at 37° C. for 90 minutes.
• Before beginning this part of the protocol: • Made 1×PBS by diluting 10× stock (10×, Phosphate buffered saline, Fisher #BP399— • 4) in sterile deionized water. • Diluted paraformaldehyde (16% Paraformaldehyde solution, Electron Microscopy Sciences #15710-S) to 4% in 1×PBS. • Diluted Hoechst stain (Life Technologies #H3570) 1:10,000 in 1×PBS (1 μL Hoechst per 10 mL 1×PBS). • Both solutions were protected from light. • 1) After compound treatment, aspirated media from cell plates and gently added in 50 μL of 4% paraformaldehyde for 10 min protected from light at room temperature. • 2) Aspirated paraformaldehyde solution and gently added 50 μL of 1:10,000 Hoechst solution to each well and incubated for 10 min protected from light at room temperature. • 3) Aspirated Hoechst solution and gently added 100 μL 1×PBS. Cover the plate with aluminum film (VWR #60941-126). • 4) Stored at 4° C. or used immediately for imaging on ThermoFisher CX7 imager.
Exemplary compounds of the disclosed herein were evaluated for efficacy for inhibitor activity of tau stress granules in the arsenite assay and quantified as drug concentration providing a 50% reduction (IC50) of granules per cell is shown in Table 4.
In Table 4 below, A indicates an IC50 (μM)<0.5 μM, B indicates an IC50 (μM) 0.5 μM to <1 μM, C indicates an IC50 (μM) 1 μM to <2 μM, and D indicates an IC50 (μM) 2 μM to <6 μM.

- IC50 (tau stress granules): < 0.5 µM
Structure (SMILES): Cc1cc(-c2ccc(C3CCN(C(C)C)CC3)cc2)sc1C(=O)N1CC[C@H](N)C1 [Compound 183, (S)-(3-aminopyrrolidin-1-yl)(5-(4-(1-isopropylpiperidin-4-yl)phenyl)-3-methylthiophen-2-yl)methanone]
- TDP-43 level in the nuclear fraction (immunoblot) (insoluble TDP-43): the levels of TDP-43 in the nucleus were maintained; also recorded: restoring nuclear TDP-43 localization
